Assay: ABPM study, in-clinic vital signs
Format: in vivo, human
Details: SAF; for In-clinic vital signs change from baseline ≥5, subjects / In-clinic vital signs change from baseline ≥10, subjects / In-clinic vital signs change from baseline ≥15, subjects: parameter not given (Table 111)
Method: Safety was evaluated by assessment of clinical laboratory tests, physical examinations, and vital signs measurements from office visits at various time points during the study, and by the documentation of AEs.
Tables 106, 107, and 108 show the changes to in-clinic measurements of systolic blood pressure, diastolic blood pressure, and heart rate over the treatment period.
For subjects with a body weight of at least about 65.4 kg, there was no difference between treatment and placebo in the number of subjects with a ≥5, ≥10, or ≥15 mm Hg increase in systolic blood pressure. The same was true for subjects over the age of 66.

[1] = Baseline to End of Treatment, subgroup <= 25th percentile BW (65.4 kg)
[2] = Baseline to End of Treatment, subgroup >25th percentile BW (65.4 kg)
[3] = Baseline to End of Treatment, subgroup Age <= 75th percentile (66 years)
[4] = Baseline to End of Treatment, subgroup Age > 75th percentile (66 years)
[5] = Baseline to End of Treatment, subgroup Pre-existing hypertension: NO
[6] = Baseline to End of Treatment, subgroup Pre-existing hypertension: YES
[7] = Baseline to End of Treatment, subgroup eGFR <= 25th percentile (72 mL/min/1.73 m^2)
[8] = Baseline to End of Treatment, subgroup eGFR > 25th percentile (72 mL/min/1.73 m^2)
[9] = Over 28 Days on 3 Consecutive Visits
[10] = Over 28 Days on 3 Consecutive Visits, subgroup Body Weight <= 25th Percentile (65.4 kg)
[11] = Over 28 Days on 3 Consecutive Visits, subgroup Body Weight > 25th Percentile (65.4 kg)
[12] = Over 28 Days on 3 Consecutive Visits, subgroup eGFR <= 25th Percentile (72 mL/min/1.73 m^2)
[13] = Over 28 Days on 3 Consecutive Visits, subgroup eGFR > 25th Percentile (72 mL/min/1.73 m^2)

With `O=C(Nc1ccc(C[C@@H]2CC[C@H]([C@H](O)c3ccccc3)N2)cc1)[C@@H]1CCc2nccc(=O)n21` [Vibegron, (6S)-N-[4-[[(2S,5R)−5-[(R)-hydroxy(phenyl)methyl]pyrrolidin−2-yl]methyl]phenyl]−4-oxo−7,8-dihydro−6H-pyrrolo[1,2-a]pyrimidine−6-carboxamide] the “In-clinic SBP (mmHg) change from baseline ≥5, subjects” value (Baseline to End of Treatment) was 36 (34.3) n (%), the “In-clinic SBP (mmHg) change from baseline ≥10, subjects” value (Baseline to End of Treatment) was 22 (21.0) n (%) and the “In-clinic SBP (mmHg) change from baseline ≥15, subjects” value (Baseline to End of Treatment) was 13 (12.4) n (%). For the same compound, the “In-clinic SBP change from baseline ≥5, subjects” value [1] was 13 (43.3) n (%), the “In-clinic SBP change from baseline ≥10, subjects” value [1] was 9 (30.0) n (%) and the “In-clinic SBP change from baseline ≥15, subjects” value [1] was 5 (16.7) n (%). For the same compound, the “In-clinic SBP change from baseline ≥5, subjects” value [2] was 23 (30.7) n (%), the “In-clinic SBP change from baseline ≥10, subjects” value [2] was 13 (17.3) n (%) and the “In-clinic SBP change from baseline ≥15, subjects” value [2] was 8 (10.7) n (%). The “In-clinic SBP change from baseline ≥5, subjects” value [3] was 29 (34.9) n (%), the “In-clinic SBP change from baseline ≥10, subjects” value [3] was 18 (21.7) n (%) and the “In-clinic SBP change from baseline ≥15, subjects” value [3] was 10 (12.0) n (%). The “In-clinic SBP change from baseline ≥5, subjects” value [4] was 7 (31.8) n (%), the “In-clinic SBP change from baseline ≥10, subjects” value [4] was 4 (18.2) n (%) and the “In-clinic SBP change from baseline ≥15, subjects” value [4] was 3 (13.6) n (%). For the same compound, the “In-clinic SBP change from baseline ≥5, subjects” value [5] was 22 (33.3) n (%), the “In-clinic SBP change from baseline ≥10, subjects” value [5] was 14 (21.2) n (%) and the “In-clinic SBP change from baseline ≥15, subjects” value [5] was 9 (13.6) n (%). The “In-clinic SBP change from baseline ≥5, subjects” value [6] was 14 (35.9) n (%), the “In-clinic SBP change from baseline ≥10, subjects” value [6] was 8 (20.5) n (%) and the “In-clinic SBP change from baseline ≥15, subjects” value [6] was 4 (10.3) n (%). The “In-clinic SBP change from baseline ≥5, subjects” value [7] was 13 (43.3) n (%), the “In-clinic SBP change from baseline ≥10, subjects” value [7] was 9 (30.0) n (%) and the “In-clinic SBP change from baseline ≥15, subjects” value [7] was 6 (20.0) n (%). For the same compound, the “In-clinic SBP change from baseline ≥5, subjects” value [8] was 23 (30.7) n (%), the “In-clinic SBP change from baseline ≥10, subjects” value [8] was 13 (17.3) n (%) and the “In-clinic SBP change from baseline ≥15, subjects” value [8] was 7 (9.3) n (%). The “In-clinic DBP (mmHg) change from baseline ≥5, subjects” value [9] was 5 (5.1) n (%), the “In-clinic DBP (mmHg) change from baseline ≥10, subjects” value [9] was 3 (3.1) n (%) and the “In-clinic DBP (mmHg) change from baseline ≥15, subjects” value [9] was 0 n (%). The “In-clinic HR (bpm) change from baseline ≥5, subjects” value [9] was 6 (6.1) n (%), the “In-clinic HR (bpm) change from baseline ≥10, subjects” value [9] was 3 (3.1) n (%) and the “In-clinic HR (bpm) change from baseline ≥15, subjects” value [9] was 0 n (%). For the same compound, the “In-clinic SBP (mmHg) change from baseline ≥5, subjects” value [9] was 14 (14.3) n (%), the “In-clinic SBP (mmHg) change from baseline ≥10, subjects” value [9] was 6 (6.1) n (%) and the “In-clinic SBP (mmHg) change from baseline ≥15, subjects” value [9] was 0 n (%). For the same compound, the “In-clinic vital signs change from baseline ≥5, subjects” value [10] was 6 (23.1) n (%), the “In-clinic vital signs change from baseline ≥10, subjects” value [10] was 2 (7.7) n (%) and the “In-clinic vital signs change from baseline ≥15, subjects” value [10] was 0 n (%). For the same compound, the “In-clinic vital signs change from baseline ≥5, subjects” value [11] was 8 (11.1) n (%), the “In-clinic vital signs change from baseline ≥10, subjects” value [11] was 4 (5.6) n (%) and the “In-clinic vital signs change from baseline ≥15, subjects” value [11] was 0 n (%). For the same compound, the “In-clinic vital signs change from baseline ≥5, subjects” value [12] was 3 (10.7) n (%), the “In-clinic vital signs change from baseline ≥10, subjects” value [12] was 1 (3.6) n (%) and the “In-clinic vital signs change from baseline ≥15, subjects” value [12] was 0 n (%). For the same compound, the “In-clinic vital signs change from baseline ≥5, subjects” value [13] was 11 (15.7) n (%), the “In-clinic vital signs change from baseline ≥10, subjects” value [13] was 5 (7.1) n (%) and the “In-clinic vital signs change from baseline ≥15, subjects” value [13] was 0 n (%).

Source: patent US20230027066A1 (Urovant Sciences GmbH, priority 2019, published 2023)
